This is an account of results in patent publication US4001280A, “Chromone derivatives” (Fujisawa Pharmaceutical Co., Ltd., priority 1972, dated 1977).

In this test the test system is Hyperimmune antiserum. The experiment in a line: Anti-allergic test in sensitized rats: percent inhibition of skin dye leakage (blue spot) for hyperimmune antiserum. The test is classed as in vivo, Sprague-Dawley JCL strain rats. The following applies: p.o. On the procedure: Five male Sprague-Dawley JCL strain rates weighing 290-310g. were used for each dose. The animals were sensitized by intracutaneous injection of 0.1ml. of 5 times diluted reagin-like rat antiserum at 48 hours before egg albumin at their depilated backs and were injected 0.1ml. of 4 times diluted hyperimmune rat antiserum at 4 hours before. One ml. of mixture of egg albumin 5 mg. and Evans blue 5 mg. was injected intravenously. Immediately before 0.1ml. of 0.2% histamine solution was injected intracutaneously.
One hour after the injection of the antigen and dye, animals were sacrificed and the skin of the back was removed. The dye of blue spot was then extracted from the skin. The blue spot areas of the skin were punched out and were cut with clipper into small pieces. The small pieces per one blue spot were blended with 10 ml. of a 4:1 mixture of acetone and 2% solution of RBS-25 (Marumoto industrial Co., Ltd.) and rested for 16 hours. Five and 16 hours after, it was shaked for 30 minutes respectively. After centrifugation at 2000 rpm for 15 minutes, the optical density of the supernatant was determined at 620 mμ.
[…] The mean amount of dye of the test animals was compared with that of the control animals. The percent inhibition for each dose was calculated.

For the molecule `CN1CCN(C(=O)c2cc(=O)c3c(OCCOc4ccccc4)cccc3o2)CC1`, the “inhibition % for Hyperimmune antiserum” value by setting is: (pretreatment 30 min., dose 125 mg./kg.) 48.2%; (pretreatment 30 min., dose 250 mg./kg.) 66.7%; (pretreatment 60 min., dose 250 mg./kg.) 45.8%; (pretreatment 60 min., dose 500 mg./kg.) 46.5%; (pretreatment 120 min., dose 125 mg./kg.) 37.6%; (pretreatment 120 min., dose 250 mg./kg.) 40.6%. The “inhibition % for Hyperimmune antiserum” value (pretreatment 120 min., dose 500 mg./kg.) is on record as 67.7%.
